The target in one test is T1, Neuromedin-K receptor (Homo sapiens, UniProt P29371).
T1 sequence (P29371 whole entry): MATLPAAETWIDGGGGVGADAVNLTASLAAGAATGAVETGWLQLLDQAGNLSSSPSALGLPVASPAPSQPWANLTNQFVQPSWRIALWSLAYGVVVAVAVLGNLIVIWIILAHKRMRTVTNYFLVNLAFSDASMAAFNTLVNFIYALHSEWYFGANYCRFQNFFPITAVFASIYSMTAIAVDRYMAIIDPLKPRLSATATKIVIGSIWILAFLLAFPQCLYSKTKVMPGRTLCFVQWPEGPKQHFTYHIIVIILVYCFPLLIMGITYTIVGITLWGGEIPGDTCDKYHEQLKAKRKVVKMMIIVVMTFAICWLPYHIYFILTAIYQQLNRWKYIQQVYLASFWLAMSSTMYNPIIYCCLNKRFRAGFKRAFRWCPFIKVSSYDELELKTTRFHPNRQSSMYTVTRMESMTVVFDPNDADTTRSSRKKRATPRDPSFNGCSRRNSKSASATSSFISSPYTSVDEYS

The target in the next test is T2, Substance-K receptor (Homo sapiens, UniProt P21452).
T2 sequence (P21452 whole entry): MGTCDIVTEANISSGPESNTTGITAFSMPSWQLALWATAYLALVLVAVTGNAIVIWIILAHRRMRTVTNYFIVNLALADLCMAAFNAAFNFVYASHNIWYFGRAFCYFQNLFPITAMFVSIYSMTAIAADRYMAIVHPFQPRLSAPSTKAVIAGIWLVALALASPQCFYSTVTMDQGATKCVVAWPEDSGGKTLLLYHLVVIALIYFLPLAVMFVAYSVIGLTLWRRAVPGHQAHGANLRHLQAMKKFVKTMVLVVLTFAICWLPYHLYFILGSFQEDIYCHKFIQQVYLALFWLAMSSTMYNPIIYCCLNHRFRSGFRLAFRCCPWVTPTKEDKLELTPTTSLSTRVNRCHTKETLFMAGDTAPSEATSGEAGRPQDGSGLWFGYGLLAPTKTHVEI

The next test has as its target Substance-P receptor (Homo sapiens, UniProt P25103).

Where a SMILES comes first, the peptide text is derived from it. [ ]: non-standard residue; d: D form. NMeF = CN[C@@H](Cc1ccccc1)C(=O)O Some results are limits rather than exact numbers.

Substance-P receptor, sequence (P25103 whole entry): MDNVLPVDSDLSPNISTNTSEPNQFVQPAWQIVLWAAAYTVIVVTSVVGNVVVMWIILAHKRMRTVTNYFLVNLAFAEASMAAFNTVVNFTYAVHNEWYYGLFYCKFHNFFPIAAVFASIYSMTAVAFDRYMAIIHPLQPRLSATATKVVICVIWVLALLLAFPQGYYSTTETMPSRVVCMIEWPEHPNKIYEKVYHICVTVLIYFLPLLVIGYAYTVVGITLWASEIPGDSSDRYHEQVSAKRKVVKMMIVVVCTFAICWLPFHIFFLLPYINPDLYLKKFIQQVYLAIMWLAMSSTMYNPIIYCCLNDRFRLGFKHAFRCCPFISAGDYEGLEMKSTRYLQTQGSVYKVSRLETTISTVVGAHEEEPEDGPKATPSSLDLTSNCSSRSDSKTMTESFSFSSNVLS

Turning to `COc1ccccc1CN[C@H]1CCCN[C@H]1c1ccccc1` [(+/-)(2-Methoxy-benzyl)-(2-phenyl-piperidin-3-yl)-amine], the Ki at Neuromedin-K receptor and on Substance-K receptor was over 10000 nM each time.

Regarding `CSCC[C@H](NC(=O)[C@H](CC(C)C)NC(=O)CNC(=O)[C@H](Cc1ccccc1)N(C)C(=O)[C@H](Cc1ccccc1)NC(=O)[C@H](Cc1ccccc1)NC(=O)[C@H](CC(=O)O)NC(=O)[C@H](Cc1cnc[nH]1)NC(=O)[C@H](CCSC)NC(=O)[C@@H](N)CC(=O)O)C(N)=O` [NKB [MePhe7]] (H-DMHDFF[NMeF]GLM-NH2), the Ki is 0.31 nM on Neuromedin-K receptor and over 10000 nM on Substance-P receptor.

At Substance-K receptor, `CSCC[C@H](NC(=O)[C@H](CC(C)C)NC(=O)CNC(=O)[C@@H](NC(=O)[C@H](Cc1ccccc1)NC(=O)[C@H](Cc1ccccc1)NC(=O)[C@H](CC(=O)O)NC(=O)[C@H](Cc1c[nH]cn1)NC(=O)[C@H](CCSC)NC(=O)[C@@H](N)CC(=O)O)C(C)C)C(N)=O` [NSC_5311312] gave a Ki of 16.5 nM.

Turning to `CC(=O)NC1(c2ccccc2)CCN(CCC(CN(C)C(=O)c2ccccc2)c2ccc(Cl)c(Cl)c2)CC1` (stereo not drawn) [SR 48968], the results for the Ki on Neuromedin-K receptor, at Substance-P receptor and at Substance-K receptor were 707 nM, 454 nM and 0.23 nM, respectively.

Values taken from BindingDB's records for PubMed 9190866 (Smithkline Beecham Pharmaceuticals, 1997).
